# From patent US10981893B2, “Therapeutic inhibitory compounds” (Attune Pharmaceuticals, Inc., priority 2015, dated 2021)
# How the values were obtained:
# human Plasma Kallikrein = human Plasma Kallikrein (Homo sapiens (Human), UniProt P03952); assay: In vitro enzyme inhibition of human plasma kallikrein (Pro-Phe-Arg-AMC cleavage); assay type: biochemical; conditions: PFR-AMC substrate, 37° C., read-out: hPK IC50
# Method: The ability of the compounds disclosed herein to inhibit human plasma kallikrein activity was quantified according to the procedures below.
# A 10 mM solution of the test compound was made in DMSO. This solution was serially diluted 1:5 in DMSO to yield 2000, 400, 80, 16, 3.2, 0.64, 0.128, 0.0256 and 0.00512 μM compound test solutions. A control tube containing only DMSO is included. 16 μL of each compound test solution was combined with 384 μL of assay buffer (50 mM Tris-HCl pH 7.5, 150 mM NaCl, 0.01% Triton X-100) to yield a “4× test compound buffer stock”.
# Separately, a 40 nM solution of human Plasma Kallikrein (Abcam) and a 93.6 μM solution Pro-Phe-Arg-AMC (Bachem) were made using assay buffer. These solutions are hereby refereed to as 4×hPK and 2×PFR-AMC, respectively.
# 60 μL of each 4× test compound buffer stock was combined with 60 μL of 4× hPK to yield 120 μL of “2× test compound buffer stock/2×hPK”. 50 μL was removed from this mixture and placed into duplicate wells on a Microfluor 1 Black U-bottom microtiter plate (Thermo Scientific). This plate was incubated for 5 minutes at 37° C. To each well, 50 μL of pre-warmed 2×PFR-AMC was added to start the enzymatic reaction. Cleavage of PFR-AMC was monitored in a Biotek Synergy H4 reader set at 37° C. Readings are taken every 43 seconds for 1 hour. The highest mean velocity over 20 reads (˜15 minutes) is used to calculate the IC50. The IC50 is calculated using the Gen5 (Biotek Instruments).
# The ability of the compounds in Table 1 to inhibit human plasma kallikrein activity was determined and the data is shown in Table 3.
# [1] = biological target: kallikrein in human plasma (Homo sapiens (Human), UniProt P03952); assay: In vitro cellular assay / contact assay: kallikrein activity in ellagic acid-activated human plasma (Z-FR-2-AMC substrate); assay type: biochemical; conditions: human plasma activated with ellagic acid, 37° C.
# kallikrein in human plasma, sequence (P03952 391-638 limits assumed): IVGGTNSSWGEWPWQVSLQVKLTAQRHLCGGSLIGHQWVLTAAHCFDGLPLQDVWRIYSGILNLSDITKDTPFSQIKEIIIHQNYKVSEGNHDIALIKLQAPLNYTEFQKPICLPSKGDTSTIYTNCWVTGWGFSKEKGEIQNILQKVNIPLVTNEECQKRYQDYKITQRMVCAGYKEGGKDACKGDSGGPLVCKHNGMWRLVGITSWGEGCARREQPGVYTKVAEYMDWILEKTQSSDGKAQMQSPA
# kallikrein in human plasma, sequence (P03952 20-390 partner limits assumed): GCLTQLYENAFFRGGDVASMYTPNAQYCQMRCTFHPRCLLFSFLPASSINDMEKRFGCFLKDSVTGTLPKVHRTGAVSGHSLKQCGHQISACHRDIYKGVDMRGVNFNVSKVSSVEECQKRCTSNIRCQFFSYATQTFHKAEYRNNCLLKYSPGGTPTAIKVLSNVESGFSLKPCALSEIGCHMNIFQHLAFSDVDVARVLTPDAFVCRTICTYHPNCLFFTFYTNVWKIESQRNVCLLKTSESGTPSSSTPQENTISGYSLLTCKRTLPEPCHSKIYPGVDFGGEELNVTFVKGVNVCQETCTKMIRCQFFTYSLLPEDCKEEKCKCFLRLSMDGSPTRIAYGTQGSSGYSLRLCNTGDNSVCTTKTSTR
# Method: The ability of the compounds disclosed herein to inhibit cellular kallikrein activity was quantified and the respective EC50 value was determined.
# Plasma kallikrein inhibitor C1NH (Athens Research & Technology, Cat #16-16-031509); Ellagic acid (Sigma, E2250); Substrate Z—FR-2-AMC (GL Biochem, Cat #55352); Nunc™ 96-Well Polypropylene MicroWell™ Plates (Nunc, Cat #267342)
# All dilutions were prepared in an assay buffer comprising 50 mM Tris-HCl pH 7.2, 150 mM NaCl, and 0.01% Triton X-100.
# Four fold serial dilutions were prepared from a 107.53 μM plasma kallikrein inhibitor C1NH stock solution, to yield ten solutions with concentrations between 20 μM and […]. Similarly, four fold serial dilutions were prepared from 10 mM stock solutions of various test compounds, to yield ten solutions with concentrations between 4 mM and 0.015 μM. The ten solutions of the test compounds, prepared by serial dilution, were further diluted 50-fold in the assay buffer.
# Human plasma is thawed on ice and centrifuged for 15 min at 4° C. to remove platelets. A 1 mM stock solution of ellagic acid is diluted to 8 μM and mixed with human plasma, after removing platelets, at a ratio of 1:0.8. The mixture of human plasma and ellagic acid was further diluted 32-fold in the assay buffer, to yield the final mixture for use in the inhibition assay.
# A 22.5 μL volume of the final mixture of human plasma and ellagic acid was added to a 96-well microwell plate and the plate was incubated for 15 min at 37° C.
# The test compounds at various concentrations, also prepared by serial dilutions as described above, are added to the test wells. The volume of test compound added to each test well was 12.5 μL, to yield final concentrations of 20 μM, 5 μM, 1.25 μM, 312.5 nM, 78.125 nM, 19.531 nM, 4.883 nM, 1.221 nM, 0.305 nM, and 0.076 nM. Each test compound concentration was tested in duplicates.
# In addition to the inhibitor control and test wells, the 96 well assay plate includes positive control wells which contained the mixture of human plasma and ellagic acid without C1NH inhibitor or test compounds, and background wells which contained neither the mixture of human plasma and ellagic acid nor the test compounds. The total volume of liquid in positive control and background wells was brought up to 35 μL, using the assay buffer.
# The assay plate containing C1NH inhibitors and test compounds mixed with human plasma and ellagic acid and appropriate controls was incubated at 37° C. for 5 min. A 10 mM stock solution of substrate Z—FR-2-AMC was diluted to 133.2 μM in the assay buffer, and 15 μL of the diluted substrate was added to each well, to yield a final substrate concentration of 40 μM in each well. […]
# The enzyme reaction was quantified by immediate kinetic reading of the assay plate using excitation/emission wavelengths of 330 nm/440 nm respectively. Fluorescence intensity was recorded for 60 min, using a time interval of 43 sec.
# The inhibition activity of the test compounds were evaluated using the IC50 values, calculated according to the dose-response curve of the test compounds, fitted using the “log(inhibitor)-response(variable slope)” equation in GraphPadPrism software (GraphPad Software, Inc.).
# The percentage inhibition was calculated using the following equation:
# [formula] where, Mean(BG) is the average value of the fluorescence intensity of the background wells and Mean(PC) is the average value of the fluorescence intensity of the positive control wells. […]
# human Plasma Kallikrein, sequence (P03952 391-638 limits assumed): as the sequence (P03952 391-638 limits assumed) above
# human Plasma Kallikrein, sequence (P03952 20-390 partner limits assumed): as the sequence (P03952 20-390 partner limits assumed) above
SMILES,IC50 (human Plasma Kallikrein) [nM],EC50 [1] [nM]
"Cc1nc(N)ccc1CNC(=O)c1ccnc(Cc2ccc(Cn3ccccc3=O)c(S(C)(=O)=O)c2)c1 [Example 23, N-((6-amino-2-methylpyridin-3-yl)methyl)-2-(3-(methylsulfonyl)-4-((2-oxopyridin-1(2H)-yl)methyl)benzyl)isonicotinamide]",≤ 100,≤ 100
"Cc1cc(N)nc(C)c1CNC(=O)c1cncc(Cc2ccc3ncc(Cl)cc3c2)n1 [Example 25, N-((6-amino-2,4-dimethylpyridin-3-yl)methyl)-6-((3-chloroquinolin-6-yl)methyl)pyrazine-2-carboxamide]",≤ 100,≤ 100
CS(=O)(=O)c1cc(Cc2cc(C(=O)NCc3cnc4[nH]cc(Cl)c4c3)ccn2)ccc1Cn1ccccc1=O [Example 29],≤ 100,≤ 100
